Laboratory results taken from patent publication US10960020B2, “Modulation of PCSK9 and LDLR through DRP1 inhibition” (THE BRIGHAM AND WOMEN'S HOSPITAL, INC., priority 2016, dated 2021).

Assays:
HMGCR = assay: Western blot, HepG2 HMGCR protein; format: cell-based, human; details: HepG2, Mdivi-1 50 μM, 24 hours
HepG2 cells = assay: Mitochondrial membrane potential by TMRE, HepG2; format: cell-based, human; details: HepG2, Mdivi-1 50 μM, 24 hours
Experimental: Mitochondrial membrane potential was assessed by TMRE reagent (Abcam) as previously described^21.

BCL-XL = BCL-XL mRNA and protein, HepG2; format: cell-based, human; details: HepG2, Mdivi-1 50 μM, 24 hours
Excerpt: Human cells and mouse liver was homogenized with TriZolTM (Life Technologies, Grand Island, N.Y.) to isolate RNA. QuantiTectTM Reverse Transcription Kit (Qiagen, Hilden, Germany) was used for reverse transcription on total RNA. cDNA was generated using the Quanta gScriptTM cDNA Synthesis Kit (Bioscience Inc., Gaithersburg, Md.). mRNA levels were quantified on a 7900HT real-time PCR system (Thermo Fisher Scientific) using TaqManTM real-time PCR with the following probes: Hs02758991_g1 (human GAPDH); Mm99999915_g1 (mouse Gapdh); Hs00236329 m1 (human BCL2L1); Hs00247147_m1 (human DRP1); Hs00545399_m1 (human PCSK9); Mm01263610_m1 (mouse Pcsk9); Hs00168352_m1 (human HMGCR); […]); Hs00181192_m1 (human LDLR); Mm00440169_m1 (mouse Ldlr); Hs01088691_m1 (human SREBP1); Mm00550338_m1 (mouse Srebp1); Hs00231674_m1 (human SREBP1a); custom primer (human SREBP1c); Hs01081784_m1 (human SREBP2); Mm01306292_m1 (mouse Srebp2); Hs01005622_m1 (human FASN); […]); Hs00167041_m1 (human HNF1A); Mm00493434_m1 (mouse Hnf1a); Hs00171168 (human APOE); Hs01059118_m1 (human ABCA1); Hs01103582_s1 (human JUN). Mouse SREBP-1c was analyzed by SYBERTM green PCR with the following primers: [NT] […] Protein concentrations were determined by the Pierce BCA AssayTM (Thermo Fisher Scientific). […] Protein levels were normalized to β-ACTIN, α-TUBULIN, or LAMIN A/C with the use of NIH ImageJ software for quantification.

naïve wild type rodents = details: up to ten weeks after treatment, Mdivi-1 injection; cited from earlier work

COc1cc(-n2c(S)nc3ccccc3c2=O)c(Cl)cc1Cl [Mdivi-1, 3-(2,4-Dichloro-5-methoxyphenyl)-2,3-dihydro-2-thioxo-4(1H)-quinazolinone]
HMGCR abundance increase (HMGCR): not | Mitochondrial function, assessed by mitochondrial membrane potential (HepG2 cells): not noticeably different | BCL-XL abundance (protein) (BCL-XL): increased | BCL-XL expression (BCL2L1 mRNA) (BCL-XL): increased | abnormal phenotypes or cytotoxicity (naïve wild type rodents): no abnormal phenotypes or cytotoxicity
